Consider one compound from patent US11969440B2, “Metal (hydr)oxide composite comprising poorly soluble drug, method for manufacturing same, and pharmaceutical composition comprising same” (priority 2020, dated 2024).

In brackets after ≈: the same amount, converted by molar mass.

The conditions of data set [1]: single oral 40 mg/kg, MgO:HPMC compositions of Comparative Examples 2 to 4, FIG. 41 to 43.
The conditions of data set [2]: cited from earlier work.

In the case of `O=c1[nH]cc(F)c(=O)[nH]1` [Example 5-FU, 5-FU], in data set [1], the “bioavailability of the compound as MgO composite versus the compound alone” value was “not improved”. Besides, the solubility in water in data set [2] is recorded as 12.2 mg/mL (≈ 93.8 mM).
